Assay results: the NIST ThermoML archive (doi:10.1021/je900789j)
± gives the expanded uncertainty stated by the source.

Details: 101.33 kPa, Liquid; for electrical conductivity: Alternating current cell with electrodes; for mass density: Vibrating tube method

Compound	electrical conductivity (248.05 K) [S/m]	electrical conductivity (258.05 K) [S/m]	electrical conductivity (268.1 K) [S/m]	electrical conductivity (278.1 K) [S/m]	mass density (278.1 K) [kg/m3]	electrical conductivity (288.15 K) [S/m]	mass density (288.15 K) [kg/m3]	electrical conductivity (298.15 K) [S/m]	mass density (298.15 K) [kg/m3]	electrical conductivity (308.15 K) [S/m]	mass density (308.15 K) [kg/m3]	electrical conductivity (318.15 K) [S/m]	mass density (318.15 K) [kg/m3]	electrical conductivity (328.15 K) [S/m]	mass density (328.15 K) [kg/m3]	electrical conductivity (338.15 K) [S/m]	mass density (338.15 K) [kg/m3]	electrical conductivity (348.15 K) [S/m]	electrical conductivity (358.15 K) [S/m]	electrical conductivity (368.15 K) [S/m]	further results
CCCCCCn1cc[n+](C)c1.F[B-](F)(F)F [1-hexyl-3-methylimidazolium tetrafluoroborate]	0.00169 ± 1.7e-05	0.00544 ± 5e-05	0.0145 ± 0.00015	0.0332 ± 0.0003	1159.81 ± 2.6	0.0672 ± 0.0007	1153.14 ± 2.6	0.1229 ± 0.0012	1146.18 ± 2.5	0.207 ± 0.002	1139.15 ± 2.5	0.326 ± 0.003	1132.31 ± 2.5	0.483 ± 0.005	1125.18 ± 2.4	0.683 ± 0.007	1118.54 ± 2.4	0.926 ± 0.009	1.214 ± 0.012	1.545 ± 0.015	electrical conductivity (238.05 K): 0.000405 ± 4e-06 S/m; electrical conductivity (378.15 K): 1.92 ± 0.02 S/m; electrical conductivity (388.15 K): 2.33 ± 0.02 S/m; electrical conductivity (398.15 K): 2.78 ± 0.03 S/m; electrical conductivity (408.15 K): 3.26 ± 0.03 S/m; electrical conductivity (418.15 K): 3.77 ± 0.04 S/m; electrical conductivity (428.15 K): 4.31 ± 0.04 S/m; electrical conductivity (438.15 K): 4.88 ± 0.05 S/m; electrical conductivity (448.15 K): 5.46 ± 0.05 S/m; electrical conductivity (458.15 K): 6.07 ± 0.06 S/m; electrical conductivity (468.15 K): 6.69 ± 0.07 S/m
CCn1cc[n+](C)c1.F[B-](F)(F)F [1-ethyl-3-methylimidazolium tetrafluoroborate]	0.106 ± 0.0011	0.228 ± 0.002	0.423 ± 0.004	0.703 ± 0.007	1293.75 ± 3.2	1.08 ± 0.011	1288.03 ± 3.2	1.546 ± 0.015	1280.07 ± 3.2	2.11 ± 0.02	1272.48 ± 3.1	2.77 ± 0.03	1265.12 ± 3.1	3.51 ± 0.04	1256.89 ± 3.1	4.34 ± 0.04	1250.24 ± 3	5.23 ± 0.05	6.2 ± 0.06	7.22 ± 0.07	electrical conductivity (378.15 K): 8.29 ± 0.08 S/m; electrical conductivity (388.15 K): 9.41 ± 0.09 S/m; electrical conductivity (398.15 K): 10.6 ± 0.11 S/m; electrical conductivity (408.15 K): 11.8 ± 0.12 S/m; electrical conductivity (418.15 K): 13 ± 0.13 S/m; electrical conductivity (428.15 K): 14.22 ± 0.14 S/m; electrical conductivity (438.15 K): 15.48 ± 0.15 S/m; electrical conductivity (448.15 K): 16.8 ± 0.17 S/m; electrical conductivity (458.15 K): 18.03 ± 0.18 S/m; electrical conductivity (468.15 K): 19.3 ± 0.2 S/m
CCCCn1cc[n+](C)c1.F[B-](F)(F)F [1-butyl-3-methylimidazolium tetrafluoroborate]	0.00778 ± 8e-05	0.0225 ± 0.0002	0.0542 ± 0.0005	0.1132 ± 0.0011	1215.43 ± 2.9	0.211 ± 0.002	1209.33 ± 2.8	0.352 ± 0.004	1202.08 ± 2.8	0.556 ± 0.006	1194.78 ± 2.8	0.821 ± 0.008	1187.79 ± 2.7	1.15 ± 0.012	1180.62 ± 2.7	1.545 ± 0.015	1173.51 ± 2.6	2 ± 0.02	2.52 ± 0.03	3.1 ± 0.03	electrical conductivity (238.05 K): 0.00212 ± 2e-05 S/m; electrical conductivity (378.15 K): 3.73 ± 0.04 S/m; electrical conductivity (388.15 K): 4.41 ± 0.04 S/m; electrical conductivity (398.15 K): 5.13 ± 0.05 S/m; electrical conductivity (408.15 K): 5.88 ± 0.06 S/m; electrical conductivity (418.15 K): 6.64 ± 0.07 S/m; electrical conductivity (428.15 K): 7.45 ± 0.07 S/m; electrical conductivity (438.15 K): 8.29 ± 0.08 S/m; electrical conductivity (448.15 K): 9.15 ± 0.09 S/m; electrical conductivity (458.15 K): 10.04 ± 0.1 S/m; electrical conductivity (468.15 K): 10.9 ± 0.11 S/m
CCCCCCCC[n+]1ccn(C)c1.F[B-](F)(F)F [1-methyl-3-octylimidazolium tetrafluoroborate]	0.00065 ± 7e-06	0.00218 ± 2e-05	0.00605 ± 6e-05	0.01441 ± 0.00014	1116.79 ± 2.4	0.0304 ± 0.0003	1110.36 ± 2.4	0.0579 ± 0.0006	1103.6 ± 2.3	0.1012 ± 0.001	1096.82 ± 2.3	0.1647 ± 0.0016	1090.04 ± 2.3	0.252 ± 0.003	1083.22 ± 2.2	0.368 ± 0.004	1076.46 ± 2.2	0.512 ± 0.005	0.688 ± 0.007	0.895 ± 0.009	electrical conductivity (238.05 K): 0.0001524 ± 1.5e-06 S/m; electrical conductivity (378.15 K): 1.134 ± 0.011 S/m; electrical conductivity (388.15 K): 1.403 ± 0.014 S/m; electrical conductivity (398.15 K): 1.701 ± 0.017 S/m; electrical conductivity (408.15 K): 2.03 ± 0.02 S/m; electrical conductivity (418.15 K): 2.38 ± 0.02 S/m; electrical conductivity (428.15 K): 2.75 ± 0.03 S/m; electrical conductivity (438.15 K): 3.15 ± 0.03 S/m; electrical conductivity (448.15 K): 3.56 ± 0.04 S/m; electrical conductivity (458.15 K): 3.99 ± 0.04 S/m; electrical conductivity (468.15 K): 4.44 ± 0.04 S/m
